Several values for one entry are separate records, joined by “and”; a condition that tells them apart may be missing. Equal entries are not always repeated.
Legend:
SV2A [1] = target: SV2A (Papio anubis, UniProt A0A096NYL0); test: PET measurement in an olive baboon; assay type: in vivo, olive baboon (Papio anubis); conditions: gray matter regions, baboon brain
Procedure: Experiments were conducted in one olive baboon (P. anubis). […] PET images of the brain were acquired using a Siemens Biograph mCT system (Siemens Medical Solutions). […] List-mode data were acquired for 120 min and binned into sinograms with the following frame timing: 6×30 sec; 3×1 min; 2×2 min; and 22×5 min.
PET data were reconstructed with a TrueX+TOF algorithm with corrections for attenuation, normalization, scatter and randoms. Regions of interest (ROIs) were manually delineated on a single representative anatomical baboon magnetic resonance image (MRI) registered to a template image. […] MRI-to-PET registration parameters were obtained to apply the ROIs to individual PET scans, and regional time-activity curves (TACs) were generated. VT values were estimated using a one-tissue (1T) compartment model with the metabolite-corrected input function.
Arterial blood samples were collected to determine the plasma input function, including measurement of the unmetabolized ^11C-3 fraction. The free fraction of ^11C-3 in plasma was determined in arterial blood samples taken immediately before ^11C-3 injection.

[2] = Plasma free fraction (fp) by ultrafiltration method; assay type: in vitro ADME, rhesus monkeys (Macaca mulatta); conditions: plasma (from arterial blood samples), rhesus monkey plasma
SV2A [3] = target: T1, SV2A (Homo sapiens (Human), UniProt Q7L0J3); test: PET imaging with (R)-11C-3 in patients with temporal lobe epilepsy
Procedure: PET imaging with (R)-^11C-3 was performed in healthy human subjects and patients with various disorders to determine if SV2A imaging can be used as an in vivo biomarker to detect changes in synaptic density in human diseases.
PET imaging with (R)-^11C-3 was carried out in ten healthy control subjects and nine patients of temporal lobe epilepsy (TLE) with mesial temporal sclerosis (MTS).

SV2A [4] = target: T1, SV2A; test: PET imaging with (R)-11C-3 in patients with Parkinson's disease; assay type: in vivo; conditions: PD subjects vs age-matched healthy controls
SV2A [5] = target: SV2A (Macaca mulatta, UniProt H9EQH8); test: PET imaging studies in rhesus monkeys; conditions: for Binding potential (BPND): from VT, centrum semiovale as reference region
Procedure: Experiments were performed in rhesus monkeys (Macaca mulatta). Rhesus monkeys were sedated using intramuscular (i.m.) injection of ketamine and glycopyrrolate approximately 2 hours before the PET scan and anesthesia was maintained with isoflurane (1.5%-2.5%) for the duration of the experiments. Baseline PET scans were obtained after intravenous (i.v.) injection of ^11C-3, ^18F-3, ^18F-4, ^18F-5, ^18F-10, ^18F-11, or ^18F-12.
Arterial blood samples were collected during the PET scans to calculate the plasma input function and to determine the unmetabolized parent fraction using the automatic column-switching HPLC system. Plasma free fraction (fp) was measured in triplicate using the ultrafiltration method.
PET scans of the brain were acquired using the FOCUS 220 PET scanner (Siemens Preclinical Solutions) with a reconstructed image resolution of approximately 1.5 mm. After a transmission scan, the radioligand was injected i.v. as a 3 min slow bolus by an infusion pump (PHD 22/2000; Harvard Apparatus). List-mode data were acquired for 120-180 min and binned into sinograms with an applicable number of frames. Scan data were reconstructed with a Fourier rebinning/filtered backprojection algorithm with corrections for attenuation, scanner normalization, radiation scatter, and randoms. Regions of interest were manually delineated on a single representative anatomic rhesus monkey MR image registered to a template image. The regions used in this study were amygdala, brain stem, caudate, centrum semiovale, cerebellum, cingulate cortex, frontal cortex, globus pallidus, insular cortex, nucleus accumbens, occipital cortex, pons, putamen, temporal cortex, and thalamus. Registration parameters were obtained to apply the regions of interest to individual PET scans, and regional time-activity curves were generated. Regional time-activity curves of the brain were analyzed with the 1-tissue-(1T) compartment model. Fit quality was compared with the 2-tissue model and the multilinear analysis method to calculate VT.
Typical injected radioactivity amount was 0.5-5 mCi per injection, with typical injected mass amount of 1-10 μg.
Specific binding to SV2A was further examined for ^11C-3, ^18F-3, and ^18F-11 in blocking studies, where levetiracetam or UCB-J ((R)-3) was i.v. infused before injection of the radiotracers.

SV2A [6] = target: T1, SV2A; test: PET imaging with (R)-11C-3 in patients with AD dementia and MCI; assay type: in vivo; conditions: AD/MCI patients vs cognitively normal subjects

T1 sequence (Q7L0J3 whole entry, looked up): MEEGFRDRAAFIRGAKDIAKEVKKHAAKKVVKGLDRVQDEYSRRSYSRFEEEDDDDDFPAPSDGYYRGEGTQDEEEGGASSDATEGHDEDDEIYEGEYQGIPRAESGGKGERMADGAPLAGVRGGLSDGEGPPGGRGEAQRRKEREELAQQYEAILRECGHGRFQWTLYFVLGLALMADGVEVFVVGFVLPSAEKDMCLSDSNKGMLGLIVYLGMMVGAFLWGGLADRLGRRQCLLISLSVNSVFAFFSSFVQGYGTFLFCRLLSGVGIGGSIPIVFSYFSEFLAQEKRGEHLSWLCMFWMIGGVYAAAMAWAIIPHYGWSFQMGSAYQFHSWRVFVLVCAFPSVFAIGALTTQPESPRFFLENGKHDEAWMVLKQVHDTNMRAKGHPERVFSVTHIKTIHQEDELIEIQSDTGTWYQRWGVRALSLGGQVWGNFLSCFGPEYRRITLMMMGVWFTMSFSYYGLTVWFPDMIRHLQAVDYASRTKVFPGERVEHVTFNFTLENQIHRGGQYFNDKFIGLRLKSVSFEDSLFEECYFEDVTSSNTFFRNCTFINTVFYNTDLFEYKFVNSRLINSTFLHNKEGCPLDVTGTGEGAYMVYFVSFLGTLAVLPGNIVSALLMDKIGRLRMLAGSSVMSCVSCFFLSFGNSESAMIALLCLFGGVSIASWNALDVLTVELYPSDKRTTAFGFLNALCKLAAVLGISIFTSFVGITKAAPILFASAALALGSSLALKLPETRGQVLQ
Sequence of SV2A (Macaca mulatta, UniProt H9EQH8) (H9EQH8 1-742): as the sequence (Q7L0J3 whole entry, looked up) above, with G64S, I572V counted along it
Sequence of SV2A (Papio anubis, UniProt A0A096NYL0) (A0A096NYL0 1-742): as the sequence (Q7L0J3 whole entry, looked up) above, with G64S, G108S, I572V counted along it

Cc1cnccc1CN1CC(c2cc(F)c(F)c(F)c2)CC1=O (single isomer, unassigned) [^11C-3, 1-((3-methylpyridin-4-yl)methyl)-4-(3,4,5-trifluorophenyl) pyrrolidin-2-one]
peak uptake (standardized uptake value, SUV) (SV2A [1]): 10-15 | time to peak uptake after injection (SV2A [1]): 6 to 16 min | fraction unbound [2]: 0.44 ± 0.01 | asymmetries in binding relative to 18F-FDG (SV2A [3]; TLE subjects with MTS): 2.3 fold | BPND asymmetry indices (SV2A [3]; hippocampus, nine TLE subjects with MTS): −38±21% | decrease in BPND (SV2A [4]; cortical regions): 16%-20% | decrease in VT (SV2A [4]; cortical regions, listed as (R)-^11C-3): 19-23% and 19%-23% | decrease in BPND (SV2A [4]; putamen): 16% | decrease in VT (SV2A [4]; putamen): 15% | decrease in BPND (SV2A [4]; substantia nigra): 33% | decrease in VT (SV2A [4]; substantia nigra): 19% | Binding potential (BPND) (SV2A [5]; Amygdala): 0.85 ± 0.34 | Binding potential (BPND) (SV2A [5]; Brainstem): 0.76 ± 0.21 | Binding potential (BPND) (SV2A [5]; Caudate nucleus): 2.40 ± 0.72 | Binding potential (BPND) (SV2A [5]; Cerebellum): 1.68 ± 0.31 | Binding potential (BPND) (SV2A [5]; Cingulate cortex): 3.17 ± 0.84 | Binding potential (BPND) (SV2A [5]; Frontal cortex): 3.18 ± 0.91 | Binding potential (BPND) (SV2A [5]; Globus pallidus): 1.10 ± 0.28 | Binding potential (BPND) (SV2A [5]; Hippocampus): 1.59 ± 0.39 | Binding potential (BPND) (SV2A [5]; Insular cortex): 3.12 ± 0.81 | Binding potential (BPND) (SV2A [5]; Nucleus accumbens): 3.04 ± 0.69 | Binding potential (BPND) (SV2A [5]; Occipital cortex): 2.97 ± 0.65 | Binding potential (BPND) (SV2A [5]; Pons): 0.75 ± 0.21 | Binding potential (BPND) (SV2A [5]; Putamen): 2.42 ± 0.63 | Binding potential (BPND) (SV2A [5]; Temporal cortex): 2.79 ± 0.61 | Binding potential (BPND) (SV2A [5]; Thalamus): 2.03 ± 0.62 | Uptake of radiotracer in blocking studies (SV2A [5]; levetiracetam (30 mg/kg) or UCB-J (150 μg/kg) i.v. 10 min before radiotracer injection): reduced to background levels | time to SUV peak in gray matter regions (SV2A [5]; rhesus monkey, in vivo, iv): slower | reduction in hippocampal VT (SV2A [6]; P=0.001): 28% | reduction in hippocampal SV2A binding (BPND) (SV2A [6]; P=0.005): 41%
